Settings: Liquid, Vibrating tube method

FC(C(F)(F)F)C(F)(F)F [1,1,1,2,3,3,3-heptafluoropropane]
Settings | mass density [kg/m3]
333.14 K, 28231 kPa | 1431.3
333.14 K, 28261 kPa | 1431.4
333.14 K, 28291 kPa | 1431.5
333.14 K, 28321 kPa | 1431.5
333.14 K, 28346 kPa | 1431.8
333.14 K, 28383 kPa | 1431.9
333.14 K, 28426 kPa | 1432.1
333.14 K, 28453 kPa | 1432.3
333.14 K, 29468 kPa | 1436.5
333.14 K, 29504 kPa | 1436.7
333.14 K, 29539 kPa | 1436.8
333.14 K, 29570 kPa | 1437.1
333.14 K, 29596 kPa | 1437.2
333.14 K, 29621 kPa | 1437.1
333.14 K, 29660 kPa | 1437.3
333.14 K, 29724 kPa | 1437.5
333.14 K, 29789 kPa | 1437.8
333.14 K, 29825 kPa | 1437.9
333.14 K, 29848 kPa | 1438.1
333.14 K, 29883 kPa | 1438.3
333.14 K, 29910 kPa | 1438.4
333.14 K, 29946 kPa | 1438.5
333.14 K, 29982 kPa | 1438.6
333.14 K, 30013 kPa | 1438.8
333.14 K, 30054 kPa | 1439.1
333.14 K, 30122 kPa | 1439.3
333.14 K, 30215 kPa | 1439.6
333.14 K, 30241 kPa | 1439.8
333.14 K, 30272 kPa | 1440
333.14 K, 30958 kPa | 1442.6
333.14 K, 31004 kPa | 1442.8
333.14 K, 31030 kPa | 1443
333.14 K, 31064 kPa | 1443.2
333.14 K, 31094 kPa | 1443.2
333.14 K, 31125 kPa | 1443.4
333.14 K, 31155 kPa | 1443.4
333.14 K, 31190 kPa | 1443.7
333.14 K, 31220 kPa | 1443.6
333.14 K, 31247 kPa | 1443.9
333.14 K, 31285 kPa | 1444
333.14 K, 31317 kPa | 1444
333.14 K, 31349 kPa | 1444.1
333.14 K, 31380 kPa | 1444.4
333.14 K, 31423 kPa | 1444.5
333.14 K, 31458 kPa | 1444.7
333.14 K, 31490 kPa | 1444.8
333.14 K, 31523 kPa | 1445
333.14 K, 31566 kPa | 1445.1
333.14 K, 31598 kPa | 1445.3
333.14 K, 31630 kPa | 1445.3
333.14 K, 31662 kPa | 1445.5
333.14 K, 31694 kPa | 1445.6
333.14 K, 31730 kPa | 1445.8
333.14 K, 31758 kPa | 1445.8
333.14 K, 31790 kPa | 1446
333.14 K, 31827 kPa | 1446.1
333.14 K, 31857 kPa | 1446.3
333.14 K, 31894 kPa | 1446.5
333.14 K, 31930 kPa | 1446.5
333.14 K, 31957 kPa | 1446.6
333.14 K, 32003 kPa | 1446.7
333.14 K, 32036 kPa | 1446.9
333.14 K, 32069 kPa | 1447
333.14 K, 32103 kPa | 1447.2
333.14 K, 32135 kPa | 1447.4
333.14 K, 32168 kPa | 1447.4
333.14 K, 32197 kPa | 1447.6
333.14 K, 32240 kPa | 1447.7
333.14 K, 32275 kPa | 1447.7
333.14 K, 32318 kPa | 1448
333.14 K, 32349 kPa | 1448.2
333.14 K, 32394 kPa | 1448.3
333.14 K, 32422 kPa | 1448.5
333.14 K, 32458 kPa | 1448.6
333.14 K, 32486 kPa | 1448.7
333.14 K, 32524 kPa | 1448.8
333.14 K, 32553 kPa | 1448.9
333.14 K, 32585 kPa | 1449.1
333.14 K, 32614 kPa | 1449.2
333.14 K, 32648 kPa | 1449.3
333.14 K, 32678 kPa | 1449.5
333.14 K, 32707 kPa | 1449.5
333.14 K, 32736 kPa | 1449.7
333.14 K, 32768 kPa | 1449.9
333.14 K, 32811 kPa | 1449.9
333.14 K, 32840 kPa | 1450.1
333.14 K, 32883 kPa | 1450.3
333.14 K, 33794 kPa | 1453.9
333.14 K, 33829 kPa | 1453.8
333.14 K, 33872 kPa | 1453.9
333.14 K, 33907 kPa | 1454.1
333.14 K, 34179 kPa | 1455.3
333.14 K, 34220 kPa | 1455.1
333.14 K, 34250 kPa | 1455.4
333.14 K, 34294 kPa | 1455.5
333.14 K, 34336 kPa | 1455.9
333.14 K, 34376 kPa | 1455.8
333.14 K, 34409 kPa | 1456
333.15 K, 6283 kPa | 1289.9
333.15 K, 6309 kPa | 1290.2
333.15 K, 6346 kPa | 1290.5
333.15 K, 6386 kPa | 1291
